In patent US20230295113A1, “NLRP3 MODULATORS” (ZOMAGEN BIOSCIENCES LTD, priority 2022, published 2023):

The compounds below were run on IL-1b (assay: Human Monocyte IL-1b Assay). Settings: Homo sapiens, Monocyte, fresh human whole blood; compound 0.5 h, 100 ng/mL LPS 3.5 h at 37° C., 5 mM ATP 45 min; IL-1b in supernatant by ELISA.
Format: cell-based
Description: Example 46: Human Monocyte IL-1b Assay
Serially diluted testing compounds were incubated with […] of fresh human whole blood for 0.5 hours. Cells were primed with 100 ng/mL lipopolysaccharide (LPS) for 3.5 hours at 37° C. followed by stimulation with 5 mM ATP for an additional 45 minutes. The concentration of IL-1b concentration in the supernatant was determined with commercially available ELISA kits. Negative controls are wells without stimulation, while positive controls are wells with stimulation but only DMSO without compounds added. After background subtraction, compound treatment wells were then normalized to the positive controls for IC50 calculations.
`CN1CCC[C@@H]([C@@H](O)c2nnc(-c3ccc(C(F)(F)F)cc3O)c3c2CCC3)C1` (racemic) [Compound 43A, 2-(4-((R)-hydroxy((R)-1-methylpiperidin-3-yl)methyl)-6,7-dihydro-5H-cyclopenta[d]pyridazin-1-yl)-5-(trifluoromethyl)phenol] gave an IC50 of under 500 nM. In the case of `Cc1cc(-c2ccc(C(F)(F)F)cc2O)nnc1C(O)C1CCCN(C)C1` (stereo not drawn) [Compound 12, 2-(6-(hydroxy(1-methylpiperidin-3-yl)methyl)-5-methylpyridazin-3-yl)-5-(trifluoromethyl)phenol], the IC50 is reported as 500 to 3000 nM. With `Cc1cc(C(=O)c2cccnc2)nnc1-c1ccc(C(F)(F)F)cc1O` [Compound 13, (6-(2-hydroxy-4-(trifluoromethyl)phenyl)-5-methylpyridazin-3-yl)(pyridin-3-yl)methanone] the IC50 was 500 to 3000 nM. `Cc1cc(C(O)C2CCCN(C)C2)nnc1-c1ccc(C(F)(F)F)cc1O` (stereo not drawn) [Compound 11, 2-(6-(hydroxy(1-methylpiperidin-3-yl)methyl)-4-methylpyridazin-3-yl)-5-(trifluoromethyl)phenol] was tested, and the IC50 was under 500 nM. Compound `Cc1cc([C@@H](O)C2CN3CCC2CC3)nnc1-c1ccc(C(F)(F)F)cc1O` (stereo partly drawn) [Compound 28B, 2-(6-((1S)-hydroxy(quinuclidin-3-yl)methyl)-4-methylpyridazin-3-yl)-5-(trifluoromethyl)phenol] has an IC50 of 500 to 3000 nM. Compound `Cc1cc([C@H](O)[C@H]2CCCN(C)C2)nnc1-c1ccc(C(F)(F)F)cc1O` [Compound 17C, 2-(6-((R)-hydroxy((S)-1-methylpiperidin-3-yl)methyl)-4-methylpyridazin-3-yl)-5-(trifluoromethyl)phenol] has an IC50 of under 500 nM. Work on `Cc1cc([C@H](O)[C@@H]2CCCN(C(C)C)C2)nnc1-c1ccc(C(F)(F)F)cc1O` [Compound 41, 2-(6-((R)-hydroxy((R)-1-isopropylpiperidin-3-yl)methyl)-4-methylpyridazin-3-yl)-5-(trifluoromethyl)phenol] yielded an IC50 of under 500 nM. `Cc1cc([C@H](O)[C@]2(C)CCCN(C)C2)nnc1-c1ccc(C(F)(F)F)cc1O` [Compound 27A, 2-(6-((R)-((R)-1,3-dimethylpiperidin-3-yl)(hydroxy)methyl)-4-methylpyridazin-3-yl)-5-(trifluoromethyl)phenol] showed an IC50 of 500 to 3000 nM. `Cc1cc(C(O)C2CCC3CCC2N3C)nnc1-c1ccc(C(F)(F)F)cc1O` (stereo not drawn) [Compound 34, 2-(6-(hydroxy(8-methyl-8-azabicyclo[3.2.1]octan-2-yl)methyl)-4-methylpyridazin-3-yl)-5-(trifluoromethyl)phenol] was tested, and the IC50 was under 500 nM. Compound `Cc1cc([C@H](O)C2CN3CCC2CC3)nnc1-c1ccc(C(F)(F)F)cc1O` (stereo partly drawn) [Compound 28A, 2-(6-((1R)-hydroxy(quinuclidin-3-yl)methyl)-4-methylpyridazin-3-yl)-5-(trifluoromethyl)phenol] has an IC50 of under 500 nM. In the case of `Cc1cc(C(O)C2CN(C)C2)nnc1-c1ccc(C(F)(F)F)cc1O` (stereo not drawn) [Compound 31, 2-(6-(hydroxy(1-methylazetidin-3-yl)methyl)-4-methylpyridazin-3-yl)-5-(trifluoromethyl)phenol], the IC50 is reported as under 500 nM. `Cc1cc([C@H](O)[C@@H]2CCCNC2)nnc1-c1ccc(C(F)(F)F)cc1O` [Compound 40, 2-(6-((R)-hydroxy((R)-piperidin-3-yl)methyl)-4-methylpyridazin-3-yl)-5-(trifluoromethyl)phenol] was tested, and the IC50 was under 500 nM. `Cc1cc([C@H](O)[C@@H]2CCCN(C)C2)nnc1-c1ccc(C(F)(F)F)cc1O` [Compound 17B, 2-(6-((R)-hydroxy((R)-1-methylpiperidin-3-yl)methyl)-4-methylpyridazin-3-yl)-5-(trifluoromethyl)phenol] was tested, and the IC50 was under 500 nM. Work on `CCN1CCC[C@@H]([C@@H](O)c2cc(C)c(-c3ccc(C(F)(F)F)cc3O)nn2)C1` [Compound 45, 2-(6-((R)-((R)-1-ethylpiperidin-3-yl)(hydroxy)methyl)-4-methylpyridazin-3-yl)-5-(trifluoromethyl)phenol] yielded an IC50 of under 500 nM. In the case of `Cc1cc(C(O)[C@@H]2CCN(C)C2)nnc1-c1ccc(C(F)(F)F)cc1O` (stereo partly drawn) [Compound 26, 2-(6-(hydroxy((R)-1-methylpyrrolidin-3-yl)methyl)-4-methylpyridazin-3-yl)-5-(trifluoromethyl)phenol], the IC50 is reported as under 500 nM. `Cc1cc(C(O)C2CCC3CCCN3C2)nnc1-c1ccc(C(F)(F)F)cc1O` (stereo not drawn) [Compound 38, 2-(6-(hydroxy(octahydroindolizin-6-yl)methyl)-4-methylpyridazin-3-yl)-5-(trifluoromethyl)phenol] gave an IC50 of 500 to 3000 nM. `Cc1c(-c2ccc(C(F)(F)F)cc2O)nnc(C(O)C2CCCN(C)C2)c1C` (stereo not drawn) [Compound 1, 2-(6-(hydroxy(1-methylpiperidin-3-yl)methyl)-4,5-dimethylpyridazin-3-yl)-5-(trifluoromethyl)phenol] gave an IC50 of 500 to 3000 nM. Work on `Cc1cc(O)c(-c2ccc(C(O)C3CCCN(C)C3)nn2)c(F)c1` (stereo not drawn) [Compound 8, 3-fluoro-2-(6-(hydroxy(1-methylpiperidin-3-yl)methyl)pyridazin-3-yl)-5-methylphenol] yielded an IC50 of under 500 nM. Compound `Cc1cc(C(O)C23CC(CN(C)C2)C3)nnc1-c1ccc(C(F)(F)F)cc1O` (stereo not drawn) [Compound 35, 2-(6-(hydroxy(3-methyl-3-azabicyclo[3.1.1]heptan-1-yl)methyl)-4-methylpyridazin-3-yl)-5-(trifluoromethyl)phenol] has an IC50 of 500 to 3000 nM. With `Cc1cc(C(O)c2cccnc2)nnc1-c1ccc(C(F)(F)F)cc1O` (stereo not drawn) [Compound 10, 2-(6-(hydroxy(pyridin-3-yl)methyl)-4-methylpyridazin-3-yl)-5-(trifluoromethyl)phenol] the IC50 was 3000 to 10000 nM.

Same assay, conditions: Monocyte; fresh human whole blood; compound 0.5 h, 100 ng/mL LPS 3.5 h at 37° C., 5 mM ATP 45 min; IL-1b in supernatant by ELISA
With `Cc1cc([C@H](O)[C@@H]2CC[C@H]3CCC(=O)N3C2)nnc1-c1ccc(C(F)(F)F)cc1O` [Compound 37, (6R,8aS)-6-((R)-hydroxy(6-(2-hydroxy-4-(trifluoromethyl)phenyl)-5-methylpyridazin-3-yl)methyl)hexahydroindolizin-3(2H)-one] the IC50 was 500 to 3000 nM. Work on `Cc1cc(C(O)C23CCCN(CC2)C3)nnc1-c1ccc(C(F)(F)F)cc1O` (stereo not drawn) [Compound 29, 2-(6-((1-azabicyclo[3.2.1]octan-5-yl)(hydroxy)methyl)-4-methylpyridazin-3-yl)-5-(trifluoromethyl)phenol] yielded an IC50 of 500 to 3000 nM. In the case of `Cc1cc(C(O)C23CCC(CC2)N(C)C3)nnc1-c1ccc(C(F)(F)F)cc1O` (stereo not drawn) [Compound 33, 2-(6-(hydroxy(2-methyl-2-azabicyclo[2.2.2]octan-4-yl)methyl)-4-methylpyridazin-3-yl)-5-(trifluoromethyl)phenol], the IC50 is reported as 500 to 3000 nM.

Same assay, conditions: fresh human whole blood; compound 0.5 h, 100 ng/mL LPS 3.5 h at 37° C., 5 mM ATP 45 min; IL-1b in supernatant by ELISA
`CN1CCC[C@@H]([C@@H](O)c2nnc(-c3ccc(C(F)(F)F)cc3O)c3c2CCC3)C1` (racemic) [Compound 43B, 2-(4-((R/S)-hydroxy((R/S)-1-methylpiperidin-3-yl)methyl)-6,7-dihydro-5H-cyclopenta[d]pyridazin-1-yl)-5-(trifluoromethyl)phenol] gave an IC50 of 500 to 3000 nM.
